The values below are quoted from earlier work in paper PMC10017685 (Nature Communications, 2023).

In the first series the test system is human erythrocytes. On the set-up: method as in DBAASP. Particulars: cited from earlier work.
GIMSSLMKKLAAHIKK [DBAASP_8896]: the “Class (dedicated toxicity dataset used for toxicity classifier evaluation)” value (“Class” below) was 0.

With GILSSLWKKLKKWIAK [DBAASP_8918], the “Class” value was 0.

Consider RRWRIVVIRVRR [DBAASP_1204], for which the “Class” value is recorded as 0.

In the case of GILSSLLKKWKKIIAK [DBAASP_8916], the “Class” value was 0.

The series is the same for the next values; noted with them: toxicity class label 1 or 0, meaning of the labels not given; DBAASP HC50 data, human erythrocytes; ref DBAASP; cited from earlier work.
Consider WKIFKLKLRMLW [DBAASP_13717], for which the “Class” value was 1.

RIGVLLARLPKLFSLFKLMGKKV [DBAASP_4189]: the “Class” value was 0.

On to FLSLIPAAISAVSALANHF [DBAASP_10851], for which the “Class” value is given as 0.

As for GKLSSLWKKLKKIIAK [DBAASP_8915], the “Class” value is 0.

KLALKLALKALKAALKLA [DBAASP_1030]: the “Class” value is recorded as 1.

FLPAIVGAAAKFLPKIFCAISKKC [DBAASP_4213]: the “Class” value is reported as 1.

Turning to ILPILSLIGGLL [DBAASP_3346], the “Class” value was 0.

Turning to GLLDLLKLLLKAAG [DBAASP_12756], the “Class” value is 0.

In the case of ALFKTMLKKLGTMAL [DBAASP_10098], the “Class” value is 0.

On to WWRLRRIW [DBAASP_10632], for which the “Class” value is 0.

For the sequence FLPAIAGVAAKFLPKIFCAITKKC [DBAASP_13909], the “Class” value is 0.

FFHHIFRGVVHVGKTIHRLVTG [DBAASP_9007]: the “Class” value is given as 0.

As to KQKLAKLKAKLQKLKQKLAKL [DBAASP_10912], the “Class” value is 0.

Regarding VRRFPYYWPFLRR [DBAASP_14262], the “Class” value is given as 0.

As to GLLKVIKTLL [DBAASP_3135], the “Class” value is listed as 0.

Turning to FLPGLIKAAVGVGSTILCKITKKC [DBAASP_8373], the “Class” value is recorded as 0.

As for FLPAALAGIGGILGKLF [DBAASP_9469], the “Class” value is listed as 0.

Take GLLKRIKSLL [DBAASP_8600]: the “Class” value is 0.

With FLPILAGLAAKLVPKVFCSITKKC [DBAASP_4220], the “Class” value is recorded as 1.

On to RRWYRRWYRRWY [DBAASP_17315], for which the “Class” value is 0.

As to FLSSIGKILGNLL [DBAASP_3103], the “Class” value is 0.

In the case of CVKVSVKVGSGVKVSVKVC [DBAASP_348], the “Class” value was 0.

On to KLLKRIKTLL [DBAASP_3149], for which the “Class” value is listed as 0.

In the case of GIWKTIKSMGKVFAGKIKQNL [DBAASP_703], the “Class” value is reported as 0.

Consider GLNAFKKVFQGIHEAIKLINNHVQ [DBAASP_6933], for which the “Class” value is listed as 0.

Regarding KKLFKKILKYLA [DBAASP_13463], the “Class” value is listed as 1.

With VRRFPYWWPFLRR [DBAASP_14259], the “Class” value was 0.

Regarding KIAKVALKALKIAKVALKAL [DBAASP_9753], the “Class” value was 0.

Turning to AIGSILGALAKGLPTLISWIKNR [DBAASP_2156], the “Class” value was 1.

For the sequence FLGAIAGVAAKFLPKVFCFITKKC [DBAASP_6167], the “Class” value was 1.

INWIKIGKKIIASL [DBAASP_18234]: the “Class” value is 0.

Regarding GFRKIVQKIRDFLRNLV [DBAASP_11853], the “Class” value was 0.

On to KIAKIAGKIAKIAGKIAKIAGKIA [DBAASP_14995], for which the “Class” value is reported as 1.

Regarding GLLKPLLKIAAKVGSNLL [DBAASP_2279], the “Class” value is on record as 0.

Turning to VKRFKKFFRKFKKSV [DBAASP_8772], the “Class” value is 0.

Regarding KKLFKKILKYL [DBAASP_197], the “Class” value is listed as 0.

GLLGPLLKIAKKVGSNLL [DBAASP_4923]: the “Class” value is 0.

As for FFGSVLKLIPKIL [DBAASP_5799], the “Class” value is on record as 0.

As to HWRRFWHR [DBAASP_12822], the “Class” value is 0.

In the case of GLLKRIKKLLKKIKKLL [DBAASP_8595], the “Class” value is reported as 1.

In the case of FLKGIKGMLGKLF [DBAASP_9109], the “Class” value was 0.

IKKIVSKIKKLLK [DBAASP_7245]: the “Class” value is given as 0.

On to KWKLFKKIFKRIVQRIKDFLRN [DBAASP_9530], for which the “Class” value was 0.

Regarding KIGKALGKALKALGKALGKA [DBAASP_11230], the “Class” value was 1.

As to FLGALFKVASKLVPAAICSISKKC [DBAASP_15602], the “Class” value is reported as 0.

Take FLSGIVGMLGKLF [DBAASP_2204]: the “Class” value was 1.

Turning to RPPQFTRAQWFAIQHISLN [DBAASP_6545], the “Class” value is listed as 1.

As to GWLDVAKKKGKAAFNVAKNFI [DBAASP_7674], the “Class” value is reported as 0.

With RQIKIWFQNRRLKWKK [DBAASP_8797], the “Class” value is given as 0.

As to GLLDLLKGAGKGLLTHLASQI [DBAASP_16389], the “Class” value is 0.

As to SAVWRRWRRFWLRKRRKR [DBAASP_9990], the “Class” value was 0.

SKVLRHLRRFLHRAHRKL [DBAASP_7665]: the “Class” value was 0.

For the sequence VRRFAWWWPFLRR [DBAASP_5142], the “Class” value is recorded as 0.

For the sequence FLAGLIGGLAKML [DBAASP_1978], the “Class” value was 0.

Consider WWWLRRIW [DBAASP_10629], for which the “Class” value is given as 0.

With GLVGTLLGHIGKAILG [DBAASP_5369], the “Class” value is on record as 0.

As to NLLGSLLKTGLKVGSNLL [DBAASP_5712], the “Class” value is given as 0.

As for GLKKIFKAGLGSLKKGIAAHVAS [DBAASP_4412], the “Class” value is 0.

HFLGTLVKLAKKIL [DBAASP_5021]: the “Class” value was 0.

Turning to GLKALKKVFKGIHKAIKLINKHVK [DBAASP_6932], the “Class” value is given as 0.

Consider RIRWILRYWRWS [DBAASP_10701], for which the “Class” value is listed as 0.

Regarding FLSLIPKIISAISALIKHF [DBAASP_12630], the “Class” value is 1.

FLSALWGVAKSLF [DBAASP_18190]: the “Class” value was 0.

As to FIGAIARLLSKIF [DBAASP_1465], the “Class” value is recorded as 1.

As to GIMSSLMKKLKKHIAK [DBAASP_8897], the “Class” value is on record as 0.

Regarding GLMKRIKTML [DBAASP_8625], the “Class” value is 0.

As for ILGKLLKTAAGLLSNL [DBAASP_4361], the “Class” value was 1.

As to GLLKRIKFLL [DBAASP_3145], the “Class” value is 0.

As for FLKGIVGMLGKLL [DBAASP_9111], the “Class” value is 0.

For the sequence FPVTFRFFKFFKG [DBAASP_9715], the “Class” value was 0.

As to RWWLRRIW [DBAASP_10630], the “Class” value is 0.

For the sequence RIWFQNRRMRWRR [DBAASP_8801], the “Class” value is 0.

In the case of FIHHIIGGLFSAGKAIHRLIRRRRR [DBAASP_5623], the “Class” value is 1.

As for GIWDTIKSMGKVFAGLILQNL [DBAASP_701], the “Class” value was 1.

Take FLSTLLNVASNVVPTLICKITKKC [DBAASP_1890]: the “Class” value is 1.

Turning to GLLKWIKTLL [DBAASP_3140], the “Class” value is recorded as 1.

For the sequence GLNALKKVFQGIHEAIKLFNNHVQ [DBAASP_6937], the “Class” value was 0.

In the case of ALWKTMLKKLGTMAL [DBAASP_10095], the “Class” value was 0.

For the sequence GFKKLLKGAAKALVKTVLF [DBAASP_4900], the “Class” value is given as 1.

As to FLGLLFHGVHHVGKWIHGLIHGHH [DBAASP_1001], the “Class” value is on record as 1.

With IAKIAGKIAKIAGKIA [DBAASP_14991], the “Class” value is 0.

GLLKRIKWLL [DBAASP_3147]: the “Class” value is 0.

As to IKNAKVCVYAVCVSHK [DBAASP_12238], the “Class” value is listed as 0.

In the case of GLLKKIKTLL [DBAASP_3141], the “Class” value is listed as 0.

With ALWKTMLKKLGT [DBAASP_10094], the “Class” value was 0.
